Where two headings read alike, the source gives them in different places.

For data set [1] the following is noted: cited from earlier work.
For a further data set, the system named is C57BL/6 mice. As to the kind of experiment: Elevated plus maze after acute drug administration. As to conditions: for anxiety in the elevated plus maze compared to Control mice: FIG. 1A legend, result in words; for time spent in the open arm of the elevated plus maze: reboxetine specificity experiment, FIG. 1D, saline 12.3±3.2, n=8 mice per group. In kind it is in vivo, mouse. As to the method: Animals and Housing. 7-8 week old male C57BL/6 mice were obtained from the National Cancer Institute (Frederick, Md.) and housed in the Broadway Research Building Johns Hopkins animal facility. Housing and behavioral testing rooms were temperature controlled with a 12 h light/dark cycle, and all behavioral tests were conducted during the light cycle. Animal protocols were approved by the Johns Hopkins University School of Medicine Animal Care and Use Committee.
Drug administration. […]
Elevated Plus Maze. Mice (n=10) were tested on the elevated plus maze in an isolated behavior suite. Mice were placed in the center of the maze and given 5 minutes to freely explore the maze. Time spent in open and closed arms of the maze were tracked using ANY-maze software (Stoelting, Wood Dale, Ill.).
Statistical Analyses. Statistical analyses were completed using GraphPad Prism 5.0 (La Jolla, Calif.). Comparisons between groups in the animal studies were made with one-way ANOVA, and P values <0.05 were considered statistically significant. The Johns Hopkins Institute for Clinical and Translational Research Biostatistics Center provided statistical support.

The mark [2] stands for this setting: assumed from literature for one-compartment model.

As to `COCCCC/C(=N\OCCN)c1ccc(C(F)(F)F)cc1` [fluvoxamine], in data set [1] (after a single 50 mg dose), the Cmax (in general, the maximum level reached in the sampled fluid or tissue) is 30 ng/mL; the Tmax (usually the time from dosing to the highest level) is 6 h; the t1/2 was 19 h.
In the case of `CNCCC(Oc1ccc(C(F)(F)F)cc1)c1ccccc1` (centres unmarked) [fluoxetine], in the data set on C57BL/6 mice, the “anxiety in the elevated plus maze compared to Control mice” value is given as “more anxious” and the “time spent in the open arm of the elevated plus maze” value stood at 4.0 ± 4.5 s. In the data set on C57BL/6 mice (acute fluoxetine 20 mg/kg vs saline), the “less time in the open arms compared to Control mice” value is reported as 72%. For the same molecule, the “trough concentration at steady-state” value in data set [1] (Prozac Full Prescribing Information) was 72 to 258 ng/mL. Also, in data set [1] (single 40-mg dose of Prozac), the “half-life (t1/2)” value was 48 h and the “peak drug concentration (Cmax)” value is 35 ng/mL.
As to `CCOc1ccccc1OC(c1ccccc1)C1CNCCO1` (centres unmarked) [reboxetine], the “time spent in the open arm of the elevated plus maze” value in the data set with C57BL/6 mice turned out to be 10.6 ± 10.8 s.
Consider `Fc1ccc([C@@H]2CCNC[C@H]2COc2ccc3c(c2)OCO3)cc1` [paroxetine], for which, in data set [1] (after a single 30 mg dose), the Cmax was 17.6 ng/mL, the Tmax was 6.3 h and the t1/2 is 16 h.
Consider `COc1ccc(C(CN(C)C)C2(O)CCCCC2)cc1` (centres unmarked) [venlafaxine], for which, in data set [1] (setting [2]), the Tmax was 8 h, the “V (apparent volume of distribution)” value is recorded as 426 L and the t1/2 is 16.9 h.
As for `CN(C)CCCC1(c2ccc(F)cc2)OCc2cc(C#N)ccc21` (centres unmarked) [citalopram], in data set [1] (setting [2]), the Tmax was 4 h, the “V (apparent volume of distribution)” value is listed as 840 L and the t1/2 is 35 h.
Turning to `COc1ccccc1N1CCN(CCN(C(=O)C2CCCCC2)c2ccccn2)CC1` [WAY-100635], in the data set on C57BL/6 mice, the “anxiety in the elevated plus maze compared to Control mice” value is listed as “no effect”. In addition, in the data set on C57BL/6 mice (FIG. 1D legend), the “reversal of anxiety when co-administered with the SNRI reboxetine” value is recorded as “does not reverse anxiety” and the “reversal of anxiety when coadministered with the SSRI fluoxetine” value is recorded as “reverses anxiety”. In addition, in the data set with C57BL/6 mice (acute treatment 40 minutes before testing, fluoxetine 20 mg/kg, WAY-100635 0.3 mg/kg, FIG. 1A, Control 20.03±10.12), the “time spent in the open arms of the elevated plus maze” value came to 20.82 ± 15.18 s.
For the molecule `CN[C@H]1CC[C@@H](c2ccc(Cl)c(Cl)c2)c2ccccc21` [sertraline], in data set [1] (setting [2]), the Tmax is 6.5 h, the “V (apparent volume of distribution)” value is recorded as 1400 L and the t1/2 is 26 h.

Source of the values: US20160375016A1, “METHODS FOR REDUCING ANXIETY AND IMPULSIVITY IN SUBJECTS INITIATING TREATMENT WITH SEROTONIN REUPTAKE INHIBITORS” (THE JOHNS HOPKINS UNIVERSITY, priority 2013, published 2016).
